Values quoted from earlier work, collected in publication PMC10969742, “A Phase I Study of the Oral Dual-Acting Pan-PI3K/mTOR Inhibitor Bimiralisib in Patients with Advanced Solid Tumors” (Cancers, 2024).

Design: method as in PMID 28490463
Details: intermittent versus daily dosing; cited from earlier work

For `Nc1nc2cc(-c3ccc4ncc(C(=O)N5CCOCC5)n4c3)ccc2o1` [TAK-117], the “Safety profile of intermittent dosing” value is given as “acceptable safety profile”.
